Consider 8 compounds from article PMC5674125, “Towards eco-friendly crop protection: natural deep eutectic solvents and defensive secondary metabolites” (Phytochemistry Reviews, 2017).

For data set [1], the system named is Sitobion avanae. More on the design: method as in Leszczynski et al. (1995). To be noted: ref Leszczynski et al. (1995), cited from earlier work.
Data set [2] has as its system Helicoverpa armigera. Set-up: method as in Joshi et al. (2014). To be noted: ref Joshi et al. (2014), cited from earlier work.
The subject of data set [3] is Acanthoscelides obtectus. Set-up: method as in Regnault-Roger et al. (2004). To be noted: adults, ref Regnault-Roger et al. (2004), cited from earlier work.
Data set [4] has as its system Helicoverpa zea. More on the design: method as in Summers and Felton (1994). To be noted: 4 mM, ref Summers and Felton (1994), cited from earlier work.
Data set [5] relates to Sitodiplosis mosellana. Set-up: method as in Ding et al. (2000). To be noted: constitutive levels exceeding 0.35 µg/g fresh weight (1.57 µg/g dry weight); ref Ding et al. (2000); cited from earlier work.
Data set [6] relates to Dalbulus maidis. More on the design: method as in Dowd and Vega (1996). To be noted: adults, 400 ppm, in vitro bioassay; ref Dowd and Vega (1996); cited from earlier work.
Data set [7] has as its system Choristoneura fumiferana. More on the design: method as in Grant and Langevin (2002). To be noted: ref Grant and Langevin (2002), cited from earlier work.
Data set [8] concerns Sitobion avanae. Set-up: method as in Chrzanowski et al. (2012). To be noted: ref Chrzanowski et al. (2012); cited from earlier work.
The subject of data set [9] is Liriomyza trifolii. Set-up: method as in Kashiwagi et al. (2005). To be noted: 4.90 µg/cm^2; ref Kashiwagi et al. (2005); cited from earlier work.
Data set [10] deals with Acyrthosiphon pisum. More on the design: method as in Goławska and Łukasik (2012). To be noted: 100 µg cm^−3; ref Goławska and Łukasik (2012); cited from earlier work.
Data set [11] has as its system Spodoptera exigua. More on the design: method as in Cipollini et al. (2008). To be noted: individual compound in diet plugs; ref Cipollini et al. (2008); cited from earlier work.
A short description of data set [12]: Solubility in natural deep eutectic solvents (saturated solutions, UV-VIS). Format: physicochemical. The protocol:
As an extension of these studies, we have investigated the solubility of six insecticidal metabolites in a variety of NADES. The solvent selection framework consisted of the following steps: • Preliminary solvent screening: a pre-selected set of 20 NADES was used as a starting point to identify and rank potential NADES candidates (Table 3). Selection constraints were imposed on important properties such as viscosity and stability.
• Secondary screening: solubility tests were performed to determine the best solvent for each of the metabolites. Saturated solutions, generated by adding an excess amount of each compound to different NADES, were kept under constant stirring (1100 rpm) for 24 h at 50 °C. The 20 candidates were ranked in decreasing order of solvent power. • Solubility verification: For the verification of solubilities, samples were centrifuged for 5 min at 2000 rpm and subsequently diluted suitably with methanol for spectrophotometric analysis (UV-1800 UV–VIS spectrophotometer, Shimadzu Europe GmbH, Duisburg, Germany).

For data set [13], the system named is Frankliniella occidentalis. Set-up: method as in Leiss et al. (2013). To be noted: 25% of natural plant concentrations (0.53 mg/g); ref Leiss et al. (2013); cited from earlier work.
Data set [14] relates to Spilarctia obliqua. More on the design: method as in Tripathi et al. (2011). To be noted: 250 µg/g, compared with azadirachtin; ref Tripathi et al. (2011); cited from earlier work.
In data set [15] the test system is Coptotermes formosanus. More on the design: method as in Adfa et al. (2010). To be noted: 5 µmol; ref Adfa et al. (2010); cited from earlier work.
Data set [16] concerns Plutella xylostella. More on the design: method as in Peterson et al. (2003). To be noted: ref Peterson et al. (2003); cited from earlier work.
For data set [17], the system named is Zygogramma exclamationis. Set-up: method as in Olson and Roseland (1991). To be noted: topical application of 100 µg/ml; ref Olson and Roseland (1991); cited from earlier work.
The test system of data set [18] is Anopheles arabiensis. Set-up: method as in Narayanaswamy et al. (2014). To be noted: 100 µg/ml; ref Narayanaswamy et al. (2014); cited from earlier work.
Data set [19] deals with Delia radicum. More on the design: method as in Jones et al. (1988). To be noted: 10 mM in buffered solution; ref Jones et al. (1988); cited from earlier work.
The subject of data set [20] is Etiella zinckenella. More on the design: method as in Hattori et al. (1992). To be noted: 0.5 mg; ref Hattori et al. (1992); cited from earlier work.

Where two headings read alike, the source gives them in different places.

As to `O=C(O)/C=C/c1ccc(O)c(O)c1` [Caffeic acid], in data set [1] (2.5 mM), the Phloem sap ingestion result was “Reduction of phloem sap ingestion at 2.5 mM”. Also, the “Body weight and survival” value in data set [2] (range of 50–200 ppm) is “Body weight and survival significantly reduced”. In addition, in data set [2], the Mode of action entry was “Protease inhibitor”. The “Knockdown effect (mobility and mortality)” value (“Knockdown effect” for short) in data set [3] (in vitro bioassay) is “Knockdown effect: reduced mobility and increased mortality in adults (in vitro bioassay)”. In data set [4] (chronic exposure), the “Prooxidant effect on midgut proteins” value is reported as “oxidative stress in midgut proteins”. Further, in [4], the “Development rate, survivorship and pupal weight” value is “Development rate, survivorship and pupal weight negatively influenced”.

With `COc1cc(/C=C/C(=O)O)ccc1O` [Ferulic acid], the “Mortality of newly hatched larvae” value in data set [5] was “Constitutive levels exceeding 0.35 µg/g fresh weight (1.57 µg/g dry weight) increased mortality of newly hatched larvae”. Also, the Sieve element salvation entry in data set [1] (2.5 mM) is on record as “Reduced sieve element salvation at 2.5 mM”. The Antifeedant activity result in data set [6] is listed as “Antifeedant activity in adults at 400 ppm (in vitro bioassay)”. In data set [7] (7.8 nmol/cm^2, dual choice bioassay), the Oviposition deterrence entry is “Oviposition deterrent 7.8 nmol/cm^2 (dual choice bioassay)”. Moreover, the “Reproductive period and daily fecundity” value in data set [8] is “Prolonged reproductive period and reduced daily fecundity”. The “Knockdown effect” value in data set [3] (day 8, in vitro bioassay) is “Knockdown effect: reduced mobility and increased mortality of adults at day 8 (in vitro bioassay)”.

For `O=c1cc(-c2ccc(O)c(O)c2)oc2cc(O[C@@H]3O[C@H](CO)[C@@H](O)[C@H](O)[C@H]3O[C@@H]3OCC(O)(CO)[C@H]3O)cc(O)c12` (stereo partly drawn) [Luteolin 7-O-β -D-apiofranosyl-(1→2)-β-D-glucopyranoside], the Ovipositional deterrence entry in [9] was “Ovipositional deterrent at 4.90 µg/cm^2”.

Take `O=c1cc(-c2ccc(O)c(O)c2)oc2cc(O[C@@H]3O[C@H](CO)[C@@H](O)[C@H](O)[C@H]3O)cc(O)c12` [Luteolin-7-glucoside]: the “Knockdown effect” value in [3] (in vitro bioassay) was “Toxin: knockdown effect: reduced mobility and increased mortality”.

Regarding `O=c1cc(-c2ccc(O)c(O)c2)oc2cc(O)cc(O)c12` [Luteolin], the “Probing and feeding deterrence” value in data set [10] was “Probing and feeding deterrent at 100 µg cm^−3”. Also, in data set [11], the Anti-herbivory activity result is listed as “no anti-herbivory activity was observed” and the Feeding result is on record as “marginally stimulating feeding”. Also, in data set [12] (1,2-propanediol: choline chloride: water (1:1:1), water 7.71%, 24 h at 50 °C, mean ± SD, n = 3), the Solubility is 13.08 ± 0.86 mg/g. The “Solubility enhancement with NADES compared to aqueous solubility” value in [12] (NADES of Table 4 versus water (Table 2)) was greater than 95 fold. In data set [13], the “Mortality of first instar larvae” value is “Significant increase in mortality of first instar larvae at 25% of natural plant concentrations (0.53 mg/g)”.

Consider `COc1cc2ccc(=O)oc2cc1O` [Scopoletin], for which the Phloem sap ingestion result in [1] (2.5 mM) was “Reduced ingestion of phloem sap at 2.5 mM”. The “Antifeedant and growth inhibitory activity” value in data set [14] was “Antifeedant and growth inhibitor. At 250 µg/g deterrence and growth inhibition was similar to that of azadirachtin”. For the same compound, in [15], the “Termicidal and antifeedant effects” value was “Termicidal and antifeedant effects at 5 µmol”. Also, in data set [16], the “Antibiosis (growth inhibitor), concentration in diet” value is reported as greater than 2500 µg/g diet and the LD50 is roughly 8300 µg/mL. For the same compound, in [17], the “Feeding deterrence (preference)” value is on record as “Phytoalexin: feeding deterrent. Topical application of 100 µg/ml reduces preference”. For the same compound, in [18], the Repellent activity result was “Repellent activity at 100 µg/ml”.

With `COc1cc(/C=C/C(=O)O)cc(OC)c1O` [Sinapic acid], the Phloem sap ingestion entry in data set [1] (2.5 mM) is reported as “Reduced ingestion of phloem sap at 2.5 mM”. For the same compound, the “Reduction of number of eggs (oviposition deterrent)” value in data set [19] is “Oviposition deterrent; 10 mM in buffered solution reduced number of eggs by 60–70%”. Moreover, the Oviposition deterrence result in [7] (78.6 nmol/cm^2) is on record as “Oviposition deterrent at 78.6 nmol/cm^2”. In [12], the Solubility was 21.59 ± 0.24 mg/g and the “Solubility enhancement with NADES compared to aqueous solubility” value is recorded as greater than 34 fold. In addition, in data set [13], the “Mortality of first instar larvae” value is on record as “Significant increase in mortality of first instar larvae at 25% of natural plant concentrations (0.53 mg/g)”.

With `O=C(O)C=Cc1ccc(O)cc1` [p-Coumaric acid], in data set [1] (concentration not given), the Phloem sap ingestion result was “Reduction ingestion of phloem sap”. The Antifeedant activity result in data set [6] is on record as “Antifeedant activity in adults at 400 ppm (in vitro bioassay)”. The Oviposition deterrence result in data set [20] is “Oviposition deterrent at 0.5 mg”.
